As a reminder, the Km is the substrate concentration at which the rate is half of its maximum. For orientation: ΔTm means the shift of the melting midpoint relative to a reference.

This note sets out measurements from article PMC11294565, “Structural insights into strigolactone catabolism by carboxylesterases reveal a conserved conformational regulation” (Nature Communications, 2024).

One assay deals with T1, CXE15^CXE20-NTα/β.
T1 construct: CXE15 core with its NTH replaced by the NT-α/β of CXE20 (one polypeptide)
Description: fluorescence hydrolysis assay, Michaelis-Menten fit. In kind it is biochemical, Arabidopsis thaliana. Particulars: 50 mM MES pH 6.0, 250 mM NaCl, 1 mM DTT; 5 μM enzyme.

For assay [1], the target named is T2, AtCXE20 (Arabidopsis thaliana, UniProt Q9LVB8).
T2 construct: gene CXE20; full length (residues 1-327; cap 1-26, core 53-327), codon-optimized synthetic gene, E. coli BL21(DE3), 6xHis-SUMO tag cleaved off
T2 sequence (Q9LVB8 1-327): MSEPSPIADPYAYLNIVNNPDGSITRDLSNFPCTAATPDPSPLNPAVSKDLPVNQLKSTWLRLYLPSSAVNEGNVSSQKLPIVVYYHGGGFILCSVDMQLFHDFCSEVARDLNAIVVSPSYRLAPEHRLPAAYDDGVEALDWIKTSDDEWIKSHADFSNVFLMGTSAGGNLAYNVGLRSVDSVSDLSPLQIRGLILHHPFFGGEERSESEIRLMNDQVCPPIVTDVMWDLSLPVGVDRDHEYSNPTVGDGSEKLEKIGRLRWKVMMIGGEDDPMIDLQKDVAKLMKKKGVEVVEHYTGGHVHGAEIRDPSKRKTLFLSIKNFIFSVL
The description is as above. Type of assay: biochemical. Particulars: 50 mM MES pH 6.0, 250 mM NaCl, 1 mM DTT; 1 μM enzyme.

For assay [2], the target named is T3, AtCXE15 (Arabidopsis thaliana, UniProt Q9FG13).
T3 construct: gene CXE15; full length (residues 1-329; NTH cap 1-21, core 32-329), E. coli BL21(DE3), 6xHis-SUMO tag cleaved off
T3 sequence (Q9FG13 whole entry, the tested form may be a part): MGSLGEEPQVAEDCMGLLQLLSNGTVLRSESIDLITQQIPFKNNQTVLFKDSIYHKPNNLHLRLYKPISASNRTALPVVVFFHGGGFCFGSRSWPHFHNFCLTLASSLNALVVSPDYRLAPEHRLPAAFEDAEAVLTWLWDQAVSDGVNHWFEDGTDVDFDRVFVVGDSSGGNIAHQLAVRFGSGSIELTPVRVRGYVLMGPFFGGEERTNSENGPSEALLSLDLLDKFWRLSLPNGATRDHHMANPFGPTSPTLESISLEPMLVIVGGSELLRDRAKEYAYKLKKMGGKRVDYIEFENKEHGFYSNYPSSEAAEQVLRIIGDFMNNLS
The assay is described as above. The following applies: 50 mM MES pH 6.0, 250 mM NaCl, 1 mM DTT; 1 μM enzyme. Type of assay: biochemical.

The next assay has as its system T4, CXE20^CXE15-NTH.
T4 construct: CXE20 core with its NT-α/β replaced by the NTH of CXE15 (one polypeptide)
The assay is described as above. Type of assay: biochemical, Arabidopsis thaliana. Particulars: 50 mM MES pH 6.0, 250 mM NaCl, 1 mM DTT; 2 μM enzyme.

Another assay has as its target CXE15^ΔNTH (Arabidopsis thaliana, UniProt Q9FG13). The description is as above. In kind it is biochemical. Particulars: 50 mM MES pH 6.0, 250 mM NaCl, 1 mM DTT; 2 μM enzyme; no NTH peptide added.
The target of assay [3] is T2, AtCXE20. Description: differential scanning fluorimetry (Sypro Orange). Type of assay: binding. The following applies: 10 μM protein, 500 μM rac-GR24; 20 mM HEPES, 150 mM NaCl, 1 mM TCEP.
The target in assay [4] is T3, AtCXE15. Description: X-ray crystal structure (soak), […] Å. Type of assay: binding. Particulars: covalent; D-ring of GR24 linked to S169; 1 mM rac-GR24 soak.
Assay [5] has as its target T3, AtCXE15. Description: differential scanning fluorimetry (Sypro Orange). Type of assay: binding. The following applies: 10 μM protein, 500 μM rac-GR24; 20 mM HEPES, 150 mM NaCl, 1 mM TCEP. For orientation: In DSF a fluorescence change marks the thermal transition of the protein.

Chain of CXE15^ΔNTH (Q9FG13 46-329, stated change not applied): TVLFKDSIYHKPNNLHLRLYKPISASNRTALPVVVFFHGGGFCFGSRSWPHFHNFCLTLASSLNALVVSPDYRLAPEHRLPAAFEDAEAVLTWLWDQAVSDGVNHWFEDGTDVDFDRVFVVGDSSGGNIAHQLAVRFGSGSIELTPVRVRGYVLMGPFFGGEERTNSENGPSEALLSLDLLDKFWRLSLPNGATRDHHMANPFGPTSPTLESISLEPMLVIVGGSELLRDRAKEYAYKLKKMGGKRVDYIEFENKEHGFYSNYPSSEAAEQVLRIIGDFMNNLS

In the case of `CCOC(=O)c1ccccc1-c1c2ccc(=O)cc-2oc2cc(OC3C=C(C)C(=O)O3)ccc12` (centres unmarked) [Yoshimulactone Green], the Michaelis-Menten constant (Km) in the assay with CXE15^CXE20-NTα/β was 19.6 ± 2.5 µM; at AtCXE20 [1], 8.6 ± 2.3 µM; on AtCXE15 [2] it was 21 ± 4.7 µM; in the assay on CXE20^CXE15-NTH, 7.5 ± 1.1 µM; on CXE15^ΔNTH, 62 ± 12.6 µM.

As to `CC1=CC(OC=C2C(=O)OC3c4ccccc4CC23)OC1=O` (racemic) [rac-GR24], the ΔTm at AtCXE20 [3] was −5.0 °C; on AtCXE15 [5], “+1.0 °C”. Further, on AtCXE15 [4], the “X-ray crystal structure (soak), 2.3 Å” value is recorded as “hydrolyzed lactone D-ring of rac-GR24 covalently linked to S169 of the catalytic triad”.
